PubChem BioAssay (NCI)
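Exposure lasted 48 hours, with cells grown in 96-well plates and compounds tested at five concentrations. Abbreviation: GI50, concentration required for 50% inhibition of growth. TGI is the concentration that stops growth completely.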

Columns and labels:
Assay in all cases: DTP human tumour cell line panel, 48 h
786-0 renal = tested on: 786-0 renal
A498 renal = tested on: A498 renal
A549 NSCLC = tested on: A549 NSCLC
ACHN renal = tested on: ACHN renal
BT-549 breast = tested on: BT-549 breast
CAKI-1 renal = tested on: CAKI-1 renal
CCRF-CEM leukemia = tested on: CCRF-CEM leukemia
COLO 205 colon = tested on: COLO 205 colon
DU-145 prostate = tested on: DU-145 prostate
EKVX NSCLC = tested on: EKVX NSCLC
HCC-2998 colon = tested on: HCC-2998 colon
HCT-116 colon = tested on: HCT-116 colon
HCT-15 colon = tested on: HCT-15 colon
HL-60(TB) leukemia = tested on: HL-60(TB) leukemia
HOP-62 NSCLC = tested on: HOP-62 NSCLC
HOP-92 NSCLC = tested on: HOP-92 NSCLC
HS 578T breast = tested on: HS 578T breast
HT29 colon = tested on: HT29 colon
IGROV1 ovarian = tested on: IGROV1 ovarian
K-562 leukemia = tested on: K-562 leukemia
KM12 colon = tested on: KM12 colon
LOX IMVI melanoma = tested on: LOX IMVI melanoma
M14 melanoma = tested on: M14 melanoma
MALME-3M melanoma = tested on: MALME-3M melanoma
MCF7 breast = tested on: MCF7 breast
MDA-MB-231 breast = tested on: MDA-MB-231 breast
MDA-MB-435 = tested on: MDA-MB-435
MOLT-4 leukemia = tested on: MOLT-4 leukemia
NCI-H226 lung = tested on: NCI-H226 lung
NCI-H23 lung = tested on: NCI-H23 lung
NCI-H460 lung = tested on: NCI-H460 lung
NCI-H522 lung = tested on: NCI-H522 lung
NCI/ADR-RES ovarian = tested on: NCI/ADR-RES ovarian
OVCAR-3 ovarian = tested on: OVCAR-3 ovarian
OVCAR-4 ovarian = tested on: OVCAR-4 ovarian
OVCAR-5 ovarian = tested on: OVCAR-5 ovarian
OVCAR-8 ovarian = tested on: OVCAR-8 ovarian
PC-3 prostate = tested on: PC-3 prostate
RPMI-8226 leukemia = tested on: RPMI-8226 leukemia
RXF 393 renal = tested on: RXF 393 renal
SF-268 CNS = tested on: SF-268 CNS
SF-295 CNS = tested on: SF-295 CNS
SF-539 CNS = tested on: SF-539 CNS
SK-MEL-2 melanoma = tested on: SK-MEL-2 melanoma
SK-MEL-28 melanoma = tested on: SK-MEL-28 melanoma
SK-MEL-5 melanoma = tested on: SK-MEL-5 melanoma
SK-OV-3 ovarian = tested on: SK-OV-3 ovarian
SN12C renal = tested on: SN12C renal
SNB-19 CNS = tested on: SNB-19 CNS
SNB-75 CNS = tested on: SNB-75 CNS
SR leukemia = tested on: SR leukemia
SW-620 colon = tested on: SW-620 colon
T-47D breast = tested on: T-47D breast
TK-10 renal = tested on: TK-10 renal
U251 CNS = tested on: U251 CNS
UACC-257 melanoma = tested on: UACC-257 melanoma
UACC-62 melanoma = tested on: UACC-62 melanoma
UO-31 renal = tested on: UO-31 renal

## O=C(CNc1c(Cl)cccc1Cl)Nc1ccc(-c2nc3ccccc3s2)cc1
786-0 renal
  GI50: 1.78 µM
  TGI: 3.76 µM
A498 renal
  GI50: 8.93 µM
  TGI: 23.4 µM
A549 NSCLC
  GI50: 5.83 µM
  TGI: 26.6 µM
ACHN renal
  GI50: 1.97 µM
  TGI: 3.93 µM
BT-549 breast
  GI50: 1.72 µM
  TGI: 4.64 µM
CAKI-1 renal
  GI50: 2.26 µM
  TGI: 5.79 µM
CCRF-CEM leukemia
  GI50: 0.485 µM
COLO 205 colon
  GI50: 2.33 µM
  TGI: 4.81 µM
DU-145 prostate
  GI50: 3.41 µM
  TGI: 10.7 µM
EKVX NSCLC
  GI50: 11.2 µM
  TGI: 28.2 µM
HCC-2998 colon
  GI50: 2.11 µM
  TGI: 4.29 µM
HCT-116 colon
  GI50: 1.98 µM
  TGI: 4.93 µM
HCT-15 colon
  GI50: 1.78 µM
  TGI: 5.28 µM
HL-60(TB) leukemia
  GI50: 2.37 µM
  TGI: 7.5 µM
HOP-62 NSCLC
  GI50: 6.8 µM
  TGI: 21.3 µM
HOP-92 NSCLC
  GI50: 1.66 µM
  TGI: 4.45 µM
HS 578T breast
  GI50: 5.11 µM
  TGI: 67.8 µM
HT29 colon
  GI50: 2.16 µM
  TGI: 4.76 µM
IGROV1 ovarian
  GI50: 2.3 µM
  TGI: 5.85 µM
K-562 leukemia
  GI50: 1.24 µM
  TGI: > 33.9 µM
KM12 colon
  GI50: 2.62 µM
  TGI: 6.94 µM
LOX IMVI melanoma
  GI50: 1.39 µM
  TGI: 2.88 µM
M14 melanoma
  GI50: 2.05 µM
  TGI: 5.52 µM
MALME-3M melanoma
  GI50: 1.85 µM
  TGI: 3.75 µM
MCF7 breast
  GI50: 0.0913 µM
  TGI: 5.7 µM
MDA-MB-231 breast
  GI50: 2.67 µM
  TGI: 7.31 µM
MDA-MB-435
  GI50: 2.64 µM
  TGI: 10.9 µM
MOLT-4 leukemia
  GI50: 0.666 µM
  TGI: > 27.3 µM
NCI-H226 lung
  GI50: 2.17 µM
  TGI: 5.72 µM
NCI-H23 lung
  GI50: 2.06 µM
  TGI: 4.58 µM
NCI-H460 lung
  GI50: 2.69 µM
  TGI: 7.96 µM
NCI-H522 lung
  GI50: 1.56 µM
  TGI: 3.61 µM
NCI/ADR-RES ovarian
  GI50: 3.22 µM
  TGI: 9.89 µM
OVCAR-3 ovarian
  GI50: 1.97 µM
  TGI: 3.73 µM
OVCAR-4 ovarian
  GI50: 1.95 µM
  TGI: 5.19 µM
OVCAR-5 ovarian
  GI50: 2.53 µM
  TGI: 7.79 µM
OVCAR-8 ovarian
  GI50: 3.01 µM
  TGI: > 29.8 µM
PC-3 prostate
  GI50: 1.66 µM
  TGI: 3.52 µM
RPMI-8226 leukemia
  GI50: 2.44 µM
  TGI: > 22.8 µM
RXF 393 renal
  GI50: 4.15 µM
  TGI: 9.73 µM
SF-268 CNS
  GI50: 2.4 µM
  TGI: 6.44 µM
SF-295 CNS
  GI50: 15.6 µM
  TGI: 30.2 µM
SF-539 CNS
  GI50: 1.88 µM
  TGI: 3.62 µM
SK-MEL-2 melanoma
  GI50: 3.32 µM
  TGI: 12.4 µM
SK-MEL-28 melanoma
  GI50: 2.61 µM
  TGI: 7.31 µM
SK-MEL-5 melanoma
  GI50: 1.61 µM
  TGI: 3.3 µM
SK-OV-3 ovarian
  GI50: 9.11 µM
  TGI: 70.6 µM
SN12C renal
  GI50: 2.31 µM
  TGI: 7.1 µM
SNB-19 CNS
  GI50: 3.14 µM
  TGI: 12.5 µM
SNB-75 CNS
  GI50: 2.42 µM
  TGI: 8.22 µM
SR leukemia
  GI50: 0.797 µM
  TGI: > 23.1 µM
SW-620 colon
  GI50: 2.2 µM
  TGI: 4.9 µM
T-47D breast
  GI50: 1.89 µM
  TGI: 5.37 µM
TK-10 renal
  GI50: 2.04 µM
  TGI: 4.69 µM
U251 CNS
  GI50: 2.06 µM
  TGI: 4.65 µM
UACC-257 melanoma
  GI50: 4.27 µM
  TGI: 16.6 µM
UACC-62 melanoma
  GI50: 1.71 µM
  TGI: 3.87 µM
UO-31 renal
  GI50: 3.62 µM
  TGI: 9.13 µM
